Source: US9012500B2, “PKC-ε activator” (Nishizaki Bioinformation Research Institute, priority 2010, dated 2015)

Columns and labels:
[1] = system: senescence-accelerated mouse (SAMP8); assay: Water maze test in senescence-accelerated mouse (SAMP8); assay type: in vivo; conditions: SAMP8, 0.25 mg/kg orally once a day, 8 days
Experimental: Using senescence-accelerated mouse (accelerated-senescence-prone mice 8: SAMP8) and normal senescence mouse (accelerated-senescence-resistant mice 1: SAMR1) as a control thereof, a water maze test was performed. Male SAMP8 and SAMR1 (22- to 25-week-old) were available from Takeda Pharmaceutical Company Limited (Osaka, Japan). The mice were individually raised in a cage at 23±1° C., 12 hr light/dark cycle (lighted at 7:00 am), and allowed to freely ingest feed (solid feed) and water.
Racemate DCP-LA and 4 optical isomers DCP-LA (α,α-, α,β-, β,α-, β,β-DCP-LA), each dissolved in 0.1 ml polyethylene glycol (PEG), or 0.1 ml PEG were orally administered once a day from the day when the water maze test was started. For each group, the water maze test was performed twice a day for 8 days, and the time required to reach a platform (acquisition latency) was measured.
For the water maze test, a circular plastic water tank (diameter 90 cm, depth 36 cm) was used. The inside of the water tank was completely painted in black, and dark water with India ink was filled up to 20 cm from the bottom (22° C.). A platform (diameter 11 cm) painted in black was placed in water such that it was 1 cm below the water surface. The water tank was placed in a test room, and several marks seen by the mice from the water tank were put thereon. During the test, the position of the marks was not changed. A platform was placed a predetermined position from the equal distance from the center and the end of the water tank, namely, center of one quadrant. At one of the randomly selected 5 points, the mouse was released facing the wall of the water tank, and the time necessary for evacuating on the platform (acquisition latency) was measured. When smoothly evacuated, the mouse was left on the platform for 10 seconds. From the day of water maze test and during the test, polyethylene glycol (PEG) alone or racemate DCP-LA (1 mg/kg), α,α-DCP-LA (0.25 mg/kg), α,β-DCP-LA (0.25 mg/kg), β,α-DCP-LA (0.25 mg/kg), or β,β-DCP-LA (0.25 mg/kg), each dissolved in PEG, was orally administered every day. The water maze test was performed twice a day, and the second test was started at 2 min from the first test. The test was continuously performed for 8 days, and the average value (±SEM) of acquisition latency of continuous 2 days until the mouse reached the platform was calculated (each n=5).

[2] = system: glutamic acid release from the hippocampus; assay: Glutamic acid release from rat hippocampus sections (HPLC); assay type: cell-based
[3] = system: dopamine release from the striatum; assay: Dopamine release from rat striatum sections (HPLC); assay type: cell-based
[4] = system: serotonin release from the hypothalamus; assay: Serotonin release from rat hypothalamus sections (HPLC); assay type: cell-based
[5] = molecular target: T1, PKC-ε (Homo sapiens, UniProt Q02156); assay: PKC assay in cell-free system with PKC isozymes; assay type: biochemical
T1 sequence (Q02156 1-737): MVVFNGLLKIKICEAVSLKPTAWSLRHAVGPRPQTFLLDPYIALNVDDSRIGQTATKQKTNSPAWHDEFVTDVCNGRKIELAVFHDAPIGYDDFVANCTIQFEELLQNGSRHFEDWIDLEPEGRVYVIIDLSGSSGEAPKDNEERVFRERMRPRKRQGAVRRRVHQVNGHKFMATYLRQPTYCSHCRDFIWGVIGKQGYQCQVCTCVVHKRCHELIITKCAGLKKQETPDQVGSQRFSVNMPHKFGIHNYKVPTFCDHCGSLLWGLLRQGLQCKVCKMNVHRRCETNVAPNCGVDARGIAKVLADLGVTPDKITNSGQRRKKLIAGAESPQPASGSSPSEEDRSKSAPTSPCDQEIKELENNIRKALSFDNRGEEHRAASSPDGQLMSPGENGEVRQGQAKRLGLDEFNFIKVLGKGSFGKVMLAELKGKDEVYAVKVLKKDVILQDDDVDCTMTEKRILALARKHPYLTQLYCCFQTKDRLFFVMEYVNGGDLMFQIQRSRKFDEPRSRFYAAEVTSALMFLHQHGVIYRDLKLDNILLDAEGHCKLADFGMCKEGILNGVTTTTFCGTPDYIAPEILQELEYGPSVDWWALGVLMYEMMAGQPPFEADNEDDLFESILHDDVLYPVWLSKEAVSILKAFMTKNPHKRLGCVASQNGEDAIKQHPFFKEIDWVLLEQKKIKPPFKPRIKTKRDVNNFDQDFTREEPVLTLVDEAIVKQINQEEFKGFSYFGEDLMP
Experimental: The PKC activity in a cell-free system was quantified by the method described in a publication [Kanno T et al., J Lipid Res 47 (6):1146-1156, 2006]. The summary is as described below.
Synthetic PKC substrate peptide (10 μM) was reacted with various PKC isozymes in a medium containing 20 mM Tris-HCl (pH 7.5), 5 mM Mg-acetate, 10 μM ATP and each DCP-LA optical isomer (10 μM) in the absence of phosphatidylserine and diacylglycerol at 30° C. for 5 min. When the activity with new types of PKC (PKC-δ, -ε, -η and -μ) was to be measured, a medium free of Ca^2+ was used and when the activity with other PKC isozyme was to be measured, a medium containing 100 μM Ca^2+ was used. After loading on reversed-phase HPLC (LC-10ATvp, Shimadzu Co., Kyoto, Japan), a substrate peptide peak and a new resultant product peak were detected at the absorbance of 214 nm. The areas of the non-phosphorylated and phosphorylated substrate peptides m were measured (total area corresponds to the concentration of PKC substrate peptide used), and the amount of phosphorylated substrate peptide was calculated. The phosphorylated substrate peptide level (pmol/l min) was used as an index of PKC activity.

- activation of PKC isozymes in cell-free system (selectivity) ([5]; 10 μM, absence of phosphatidylserine and diacylglycerol, FIG. 4): selective and direct activation of PKC-ε
- PKC-ε activation action compared to the other optical isomers ([5]; cell-free system, 10 μM, FIG. 6): highest ability
- concentration at which the PKC activation action reaches maximum (bell-shaped) ([5]; cell-free system, FIG. 5): about 25 μM
SMILES: CCCCC[C@@H]1C[C@@H]1C[C@@H]1C[C@H]1CCCCCCCC(=O)O [α,β-DCP-LA, 8-[(1R,2S)-2-{(1R,2R)-2-pentylcyclopropylmethyl}-cyclopropyl]octanoic acid]
- acquisition latency as compared to the PEG administration group [1]: shortened acquisition latency
- acquisition latency as compared to the racemate DCP-LA (1 mg/kg) administration group [1]: significantly shortened acquisition latency
- acquisition latency as compared to the α,α-DCP-LA (0.25 mg/kg) administration group [1]: significantly shortened acquisition latency
- glutamic acid release stimulation action compared to the other optical isomers ([2]; 100 nM, in the presence of nicotine (1 μM), FIG. 7): remarkably high
- concentration at which glutamic acid release stimulation action reaches maximum (bell-shaped) ([2]; rat hippocampus sections, FIG. 8): about 100 nM
- glutamic acid release, substance alone vs non-treated group ([2]; treated alone, FIG. 9): did not show a remarkable difference
- effect on glutamic acid release caused by nicotine ([2]; with nicotine (1 μM), FIG. 9): remarkably enhanced
- dopamine release stimulation action compared to the other optical isomers ([3]; 100 nM, in the presence of nicotine (1 μM), FIG. 10): remarkably high
- concentration at which dopamine release stimulation action reaches maximum (bell-shaped) ([3]; rat striatum sections, FIG. 11): about 250 nM
- dopamine release, substance alone vs non-treated group ([3]; treated alone, FIG. 12): did not show a remarkable difference
- effect on dopamine release caused by nicotine ([3]; with nicotine (1 μM), FIG. 12): remarkably enhanced
- serotonin release stimulation action compared to the other optical isomers ([4]; 100 nM, in the presence of nicotine (1 μM), FIG. 13): remarkably high
- concentration at which serotonin release stimulation action reaches maximum (bell-shaped) ([4]; rat hypothalamus sections, FIG. 14): about 100 nM
- serotonin release, substance alone vs non-treated group ([4]; treated alone, FIG. 15): did not show a remarkable difference
- effect on serotonin release caused by nicotine ([4]; with nicotine (1 μM), FIG. 15): remarkably enhanced
